Test results: patent US20030045485A1, “P53-MEDIATED APOPTOSIS FOR THE THERAPEUTIC TREATMENT OF DISEASES” (priority 1993, published 2003)

Tests used:
[1] = test system: CML cells in bone marrow cell culture; experiment: Purging CML cells from low density mononuclear bone marrow cells with antisense myb; format: cell-based; conditions: 40 μg/ml, culture changed two times a day for 1-to-three days, after MIP-1α 300 μg/ml for 24 hours
Text: The most successful purging of bone marrow cells includes from one-to-three non-overlapping techniques. CML cells display antigens which are not present on the hematopoietic stem cells. A large majority of the CML cells that contaminant Marrow samples can initially be removed using antibodies that recognize these CML-specific antigens. Antibodies that can be used include specificities directed to one or more of the following antigens: CD15, CD33, Glycophorin A, CD10, CD2, CD4 and CD8. Antibody-cell conjugates can be removed by either flow cytometry, immuno-magnetic beads or compliment, for example. The remaining CML cells can be killed by incubating the enriched culture in the presence of c-myb antisense oligonucleotides.
Briefly, mononuclear cells will be isolated from a 5 ml bone marrow aspirate by centrifuging through a ficol-hypaque density gradient. The isolated bone marrow cells (1×10^5 CD34+ progenitor cells) are then cultured in Dexter medium with IL3, SGF and EPO and macrophage inflammatory factor (MIP-1α; 300 μg/ml) for 24 hours and then are cultured in medium containing c-myb antisense oligonucleotides. MIP-1α arrests normal hematopoietic cells in G0 and these cells will therefore be resistant to c-myb antisense. The CML cells, however, are unresponsive to MIP-1α and will continue to cycle. […]

[2] = test system: p53^tsneo/pMbm1-dhfr co-transfectants (DP16-1 MEL cells); experiment: Viability of amplified p53^tsneo/pMbm1-dhfr co-transfectants in 1.6% DMSO; format: cell-based, mouse; conditions: amplified c-myb cultures
Text: To determine how c-myb and p53 interact during MEL cell growth and differentiation, DP16-1 cells were co-transfected with p53^tsneo and pMbm1-dhfr, which encodes a full-length c-myb cDNA under the control of an SV40 promoter (Clarke, et al., supra). […] (FIG. 9A; panel c, C5a p53^tsneo/c-myb transfected DP16-1 cells; panel d, C5a cells). Instead, these cells proliferated for 2-3 days, and then arrested coincident with an increase in benzidine-positive cells (FIG. 11). Viability decreased only after the majority of cells had differentiated. Increased expression of c-myb was selected for by growing transfected cells in higher concentrations of methotrexate (Clarke et al., supra).

[3] = test system: parental DP16-1 cells; experiment: DMSO-induced differentiation of parental DP16-1 cells, benzidine staining; format: cell-based, mouse; conditions: two days of exposure to medium containing DMSO
Text: (§1) MEL cell lines invariability contain mutations of the p53 tumor suppressor gene and express either negligible or mutant p53 protein. During MEL differentiation there is a biphasic decline in expression of the c-myc oncogene although enforced expression of c-myc blocks this differentiation. To determine the relationship between mutant p53 and c-myc in cell differentiation, DP16-1 cells (which have deleted both p53 alleles) were transfected with an amplifiable plasmid vector containing a full-length mouse c-myc cDNA with or without plasmid vector containing a mutant p53 cDNA (p53^pro193). The exogenous c-myc cDNA is transcribed in MEL cells and results in increased expression of c-myc mRNA and protein during DMSO-induced differentiation. Extent of differentiation was monitored by benzidine staining (FIGS. 17A and 17B). When MEL cells are exposed to DMSO, differentiation normally occurs over a five day period. In contrast to the parental DP16-1 cells or DP16-1 cells transfected with pSV2LZquad, c-myc transfected DP16-1 cells or underwent accelerated differentiation. […] Furthermore, c-myc transfected DP16-1 cells stopped growing and eventually lost viability when grown in medium containing 1.6% DMSO. Coincident expression of p53^pro193 with c-myc abolished the accelerated DMSO-induced differentiation seen in cells which expressed c-myc alone.

[4] = test system: c-myc transfected DP16-1 cells; experiment: DMSO-induced differentiation of c-myc transfected DP16-1 cells, benzidine staining; format: cell-based, mouse; conditions: two days of exposure to medium containing DMSO
Text: as §1

[5] = test system: p53^tsneo transfected DP16-1 cells; experiment: Viability of p53^tsneo transfectants in media containing 1.6% DMSO; format: cell-based, mouse; conditions: 37.5° C., logarithmically growing transfectants
Protocol: DP16-1 MEL cells were grown in Dulbecco modified minimal essential medium (DMEM) supplemented with 10% calf serum, 2 mM glutamine, 100 U of penicillin per ml, and 100 μg of […] per ml. DNA transfections were performed by electroporation (Prochownik et al., supra). Transfection mixes consisted of 1×10^7 cells in 400 μl transfection buffer (272 mM sucrose, 7 mM phosphate (pH 7.4), 1 mM MgCl2) with either 10 μg p53^tsneo, or 10 μg pSV-2neo, linearized with Bam HI. Transfected cells were selected in media containing 1 mg/ml geneticin (G418; GIBCO). Single-cell clones were isolated by limiting cell dilution in 96-well microtiter plates. To characterize the consequences of enforced expression of p53 on differentiation, logarithmically growing transfectants were exposed to media containing 1.6% dimethyl sulfoxide (DMSO) and incubated at 37.5° C. Media was changed every other day. Cells underwent growth arrest and subsequently died over a period of 48-96 hours (FIG. 8A; DP16-1 cells, ______, p53^tsneo transfected DP16-1 cells, - - -, and DP16-1 cells co-transfected with c-myb and p53^tsneo, _._._). Viable cells were isolated by centrifugation through Ficoll-paque (Pharmacia). […] This is in contrast to untransfected control DP16-1 cells which, when grown in media containing DMSO, downregulate c-myb mRNA and differentiate while remaining viable (FIG. 8A & 8B). […]

[6] = test system: p53^tsneo clones; experiment: DMSO-induced differentiation of p53^tsneo clones, benzidine staining; format: cell-based, mouse; conditions: 5 days exposure to 1.6% DMSO at 37.5° C., viable cells isolated through Ficoll-paque
Protocol: To characterize the consequences of enforced expression of p53 on differentiation, logarithmically growing transfectants were exposed to media containing 1.6% dimethyl sulfoxide (DMSO) and incubated at 37.5° C. Media was changed every other day. Cells underwent growth arrest and subsequently died over a period of 48-96 hours (FIG. 8A; DP16-1 cells, ______, p53^tsneo transfected DP16-1 cells, - - -, and DP16-1 cells co-transfected with c-myb and p53^tsneo, _._._). Viable cells were isolated by centrifugation through Ficoll-paque (Pharmacia). […] This is in contrast to untransfected control DP16-1 cells which, when grown in media containing DMSO, downregulate c-myb mRNA and differentiate while remaining viable (FIG. 8A & 8B). As expected, the p53^ts protein was located in the cytoplasm of the cells growing at 37.5° C. in the absence of DMSO (FIG. 9A, panel a; C4 p53^tsneo DP16-1 cells). […] Thus despite the fact that the cells were grown at 37.5° C., DMSO caused the p53^ts to behave as wild-type p53 tumor suppressor and induced apoptotic cell death. MEL cells can also exit the cell cycle by being stimulated to terminally differentiate. DMSO was used to induce differentiation of p53^tsneo clones at 37.5° C. After 5 days exposure to 1.6% DMSO, viable cells were isolated by centrifugation through Ficoll-paque. […] These cells were placed at 32.5° C. and viability monitored. […]

[7] = Viability of G1-arrested p53tsneo clones (mimosine growth arrest); format: cell-based; conditions: mouse, clones C9, C2 and C1 (p53tsneo transfected DP16-1 MEL cells); mimosine 300 μM, late G1 arrest at 37.5° C., after 3-4 days of arrest
Protocol: (§2) The relationship of p53 induced cell death to the cell cycle was studied in transfected clone C9. Clone C9 cells were synchronized in G0/G1 by density arrest (typically at a concentration of 1-2×10^6 cells/ml) for 48-72 hours at 37.5° C. Cells were stimulated to begin cycling by replating into fresh media at a 1:10 split ratio. Growth arrest with mimosine (Sigma) was accomplished by the addition of 300 μM mimosine to logarithmically growing cells for a period of 24 hours.
(§3) To rule out that G1 arrest alone induces cell death, clones C9, C2 and C1 were growth arrested with either mimosine (300 μM) (Watson et al., Cytometry 12:242 (1991)) or isoleucine deprivation (Heintz et al., Proc. Natl. Acad. Sci. USA 79:4083 (1982)) at 37.5° C., both of which result in late Gi arrest.

[8] = test system: clones C9, C2 and C1 (p53^tsneo transfected DP16-1 MEL cells); experiment: as above; format: cell-based; conditions: mouse, 36 h, 300 μM
Protocol: as §2, §3

For “c-myb antisense: c-myb antisense oligonucleotide 5′-GTGCCGGGGTCTTCGGGC-3′ (chemistry not given here)”, the “Cells remaining viable in culture” value [1] was “only the normal hematopoietic cells”.

With C[S+](C)[O-] [DMSO, dimethyl sulfoxide] the “Time to loss of viability” value [2] was 10 to 14 days, the Differentiation [3] was “remained largely undifferentiated” and the Cells differentiated [4] was 70-80%. For the same molecule, the “Period over which cells died after growth arrest” value [5] was 48 to 96 h and the Benzidine positivity [6] was 70-80%.

For NC(Cn1ccc(=O)c(O)c1)C(=O)O (centres unmarked) [mimosine], the viability at 300 μM [7] was about 70% and the Viability [8] was “less than 5%”.
